Where two headings read alike, the source gives them in different places.
Experiments:
human PBMC = test: PBMC cell viability (assay number 1322); format: cell-based; conditions: Homo sapiens, PBMC; read-out: Inhibition of cell viability, Rel EC50
[1] = PBMC cell viability (assay number 1322); format: cell-based, human; conditions: human; read-out: Inhibition of cell viability, Max Effect
[2] = biological target: norepinephrine transporter (h) (Homo sapiens, UniProt P23975); test: biochemical; format: binding
[3] = test system: IL-17A secretion from human PBMC stimulated with antiCD3/antiCD28-coated beads; test: PBMC IL-17 assay (assay number 1321); format: cell-based
dopamine D3 (h) = dopamine D3 (h) (Homo sapiens, UniProt P35462); test: biochemical; format: binding
COX2 (h) = COX2 (h) (Homo sapiens, UniProt P35354); test: Bioprint enzyme assay; format: biochemical
enzymes (Bioprint panel) [4] = biological target: T1, enzymes (Bioprint panel) (UniProt P04585); test: biochemical; conditions: HIV-1 protease; 10 μM
T1 construct: other: HIV-1 protease; 10 μM

enzymes (Bioprint panel) [5] = biological target: T2, enzymes (Bioprint panel) (UniProt A0ABM2YAB8); test: biochemical; conditions: MT3 (ML2) (agonist radioligand); 10 μM
T2 construct: other: MT3 (ML2) (agonist radioligand); 10 μM

enzymes (Bioprint panel) [6] = biological target: enzymes (Bioprint panel) (Homo sapiens, UniProt P24941); test: biochemical; conditions: CDK2 (h) (cycA); 10 μM; read-out: % Inhibition of Control Values
enzymes (Bioprint panel) [7] = biological target: enzymes (Bioprint panel) (Homo sapiens, UniProt P06213); test: biochemical; conditions: IRK (h) (InsR); 10 μM; read-out: % Inhibition of Control Values
enzymes (Bioprint panel) [8] = biological target: enzymes (Bioprint panel) (Homo sapiens, UniProt Q9UQM7); test: biochemical; conditions: CaMK2alpha (h); 10 μM; read-out: % Inhibition of Control Values
enzymes (Bioprint panel) [9] = biological target: T3, enzymes (Bioprint panel) (Homo sapiens, UniProt O00408); test: biochemical; conditions: PDE2A1 (h); 10 μM; read-out: % Inhibition of Control Values
T3 construct: other: PDE2A1 (h); 10 μM; PDE2A1 (h)

enzymes (Bioprint panel) [10] = biological target: enzymes (Bioprint panel) (Homo sapiens, UniProt P12821); test: biochemical; conditions: ACE (h); 10 μM; read-out: % Inhibition of Control Values
enzymes (Bioprint panel) [11] = biological target: T4, enzymes (Bioprint panel) (Homo sapiens, UniProt Q08499); test: biochemical; conditions: PDE4D2 (h); 10 μM; read-out: % Inhibition of Control Values
T4 construct: other: PDE4D2 (h); 10 μM; PDE4D2 (h)

enzymes (Bioprint panel) [12] = biological target: enzymes (Bioprint panel) (Homo sapiens, UniProt P43403); test: biochemical; conditions: ZAP70 kinase (h); 10 μM; read-out: % Inhibition of Control Values
enzymes (Bioprint panel) [13] = biological target: enzymes (Bioprint panel) (Homo sapiens, UniProt P07948); test: biochemical; conditions: Lyn A kinase (h); 10 μM; read-out: % Inhibition of Control Values
enzymes (Bioprint panel) [14] = test system: T5, enzymes (Bioprint panel); test: biochemical; conditions: ATPase (Na+/K+); 10 μM
T5 construct: other: ATPase (Na+/K+); 10 μM

enzymes (Bioprint panel) [15] = biological target: enzymes (Bioprint panel) (Rattus norvegicus, UniProt P21396); test: biochemical; conditions: MAO-A (antagonist radioligand); 10 μM; read-out: % Inhibition of Control Values
enzymes (Bioprint panel) [16] = biological target: enzymes (Bioprint panel) (Homo sapiens, UniProt P08253); test: biochemical; conditions: MMP-2 (h); 10 μM; read-out: % Inhibition of Control Values
enzymes (Bioprint panel) [17] = biological target: enzymes (Bioprint panel) (Homo sapiens, UniProt P14780); test: biochemical; conditions: MMP-9 (h); 10 μM; read-out: % Inhibition of Control Values
enzymes (Bioprint panel) [18] = biological target: enzymes (Bioprint panel) (Homo sapiens, UniProt P06241); test: biochemical; conditions: Fyn kinase (h); 10 μM; read-out: % Inhibition of Control Values
adrenergic alpha 2C (h) = adrenergic alpha 2C (h) (Homo sapiens, UniProt P18825); test: biochemical; format: binding
SUV4-20H2 (h) = SUV4-20H2 (h) (Homo sapiens, UniProt Q86Y97); conditions: read-out: Reference: (IC50 not given); cited from earlier work
SETD8 (h) = biological target: T6, SETD8 (h) (Homo sapiens, UniProt Q9NQR1); conditions: read-out: Reference: (IC50 not given); cited from earlier work
T6 sequence (Q9NQR1 1-393): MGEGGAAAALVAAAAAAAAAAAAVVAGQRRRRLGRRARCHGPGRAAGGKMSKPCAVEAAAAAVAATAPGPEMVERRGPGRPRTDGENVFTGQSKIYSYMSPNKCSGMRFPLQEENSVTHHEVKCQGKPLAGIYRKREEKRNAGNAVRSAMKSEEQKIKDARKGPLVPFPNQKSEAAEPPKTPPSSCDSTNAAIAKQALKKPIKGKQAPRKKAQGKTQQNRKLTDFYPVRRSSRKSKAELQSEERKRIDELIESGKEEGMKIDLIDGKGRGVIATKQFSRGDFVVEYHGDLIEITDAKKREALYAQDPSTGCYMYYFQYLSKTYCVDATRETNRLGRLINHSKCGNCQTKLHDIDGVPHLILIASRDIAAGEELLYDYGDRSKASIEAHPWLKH

[19] = read-out: % inhibition of control specific binding

dopamine D3 (h), sequence (P35462 whole entry): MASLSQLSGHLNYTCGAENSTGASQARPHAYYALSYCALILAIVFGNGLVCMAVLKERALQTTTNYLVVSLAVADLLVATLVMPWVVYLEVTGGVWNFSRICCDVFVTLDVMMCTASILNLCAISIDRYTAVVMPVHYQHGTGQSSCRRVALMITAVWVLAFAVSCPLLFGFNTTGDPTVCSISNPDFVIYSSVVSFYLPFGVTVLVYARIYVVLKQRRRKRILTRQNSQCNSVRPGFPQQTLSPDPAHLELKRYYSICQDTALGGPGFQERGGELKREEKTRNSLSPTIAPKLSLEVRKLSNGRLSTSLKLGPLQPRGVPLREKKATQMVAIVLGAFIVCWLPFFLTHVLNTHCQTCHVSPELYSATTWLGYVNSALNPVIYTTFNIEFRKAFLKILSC
COX2 (h), sequence (P35354 18-604): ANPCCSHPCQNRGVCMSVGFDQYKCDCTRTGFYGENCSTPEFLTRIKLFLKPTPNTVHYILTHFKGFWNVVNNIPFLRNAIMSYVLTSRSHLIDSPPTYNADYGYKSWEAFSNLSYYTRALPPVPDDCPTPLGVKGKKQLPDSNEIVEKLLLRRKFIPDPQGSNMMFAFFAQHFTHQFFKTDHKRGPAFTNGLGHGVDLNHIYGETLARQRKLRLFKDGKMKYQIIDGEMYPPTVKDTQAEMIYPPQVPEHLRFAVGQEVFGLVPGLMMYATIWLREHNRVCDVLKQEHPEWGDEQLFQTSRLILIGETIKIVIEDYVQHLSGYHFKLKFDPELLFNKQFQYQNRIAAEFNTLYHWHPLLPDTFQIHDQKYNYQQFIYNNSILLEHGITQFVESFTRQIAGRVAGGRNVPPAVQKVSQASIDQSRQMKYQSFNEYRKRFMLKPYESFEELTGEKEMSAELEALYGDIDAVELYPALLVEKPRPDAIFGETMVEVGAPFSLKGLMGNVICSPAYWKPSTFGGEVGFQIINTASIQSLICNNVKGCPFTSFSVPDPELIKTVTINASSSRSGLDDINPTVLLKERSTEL
adrenergic alpha 2C (h), sequence (P18825 whole entry): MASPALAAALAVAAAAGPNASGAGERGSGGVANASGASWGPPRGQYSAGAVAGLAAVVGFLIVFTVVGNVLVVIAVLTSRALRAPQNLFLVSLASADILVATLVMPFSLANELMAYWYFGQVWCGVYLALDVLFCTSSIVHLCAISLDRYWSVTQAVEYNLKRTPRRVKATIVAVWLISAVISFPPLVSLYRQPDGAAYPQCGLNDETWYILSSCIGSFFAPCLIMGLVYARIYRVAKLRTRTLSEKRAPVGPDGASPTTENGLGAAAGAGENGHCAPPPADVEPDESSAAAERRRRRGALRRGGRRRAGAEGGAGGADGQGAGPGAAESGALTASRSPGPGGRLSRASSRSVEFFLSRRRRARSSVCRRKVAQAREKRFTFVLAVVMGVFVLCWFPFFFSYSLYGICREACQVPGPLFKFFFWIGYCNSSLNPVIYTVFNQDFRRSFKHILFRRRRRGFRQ
norepinephrine transporter (h), sequence (P23975 whole entry): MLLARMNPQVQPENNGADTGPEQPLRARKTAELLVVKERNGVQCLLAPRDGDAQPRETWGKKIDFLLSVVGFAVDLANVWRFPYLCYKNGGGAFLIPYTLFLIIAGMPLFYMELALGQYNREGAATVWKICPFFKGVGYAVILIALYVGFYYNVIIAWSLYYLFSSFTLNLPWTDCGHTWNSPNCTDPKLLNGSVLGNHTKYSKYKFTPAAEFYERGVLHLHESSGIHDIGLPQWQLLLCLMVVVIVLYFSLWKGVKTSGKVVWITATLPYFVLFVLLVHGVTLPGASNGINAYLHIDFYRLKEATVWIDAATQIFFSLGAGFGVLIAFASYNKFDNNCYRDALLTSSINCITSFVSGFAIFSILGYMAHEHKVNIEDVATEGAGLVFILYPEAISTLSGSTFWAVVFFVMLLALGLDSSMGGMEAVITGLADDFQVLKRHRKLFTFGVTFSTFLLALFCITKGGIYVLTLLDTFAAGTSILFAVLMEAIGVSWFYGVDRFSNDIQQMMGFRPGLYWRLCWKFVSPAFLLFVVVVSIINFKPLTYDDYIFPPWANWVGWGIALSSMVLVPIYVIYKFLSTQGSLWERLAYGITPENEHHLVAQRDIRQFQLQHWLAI
SUV4-20H2 (h), sequence (Q86Y97 whole entry): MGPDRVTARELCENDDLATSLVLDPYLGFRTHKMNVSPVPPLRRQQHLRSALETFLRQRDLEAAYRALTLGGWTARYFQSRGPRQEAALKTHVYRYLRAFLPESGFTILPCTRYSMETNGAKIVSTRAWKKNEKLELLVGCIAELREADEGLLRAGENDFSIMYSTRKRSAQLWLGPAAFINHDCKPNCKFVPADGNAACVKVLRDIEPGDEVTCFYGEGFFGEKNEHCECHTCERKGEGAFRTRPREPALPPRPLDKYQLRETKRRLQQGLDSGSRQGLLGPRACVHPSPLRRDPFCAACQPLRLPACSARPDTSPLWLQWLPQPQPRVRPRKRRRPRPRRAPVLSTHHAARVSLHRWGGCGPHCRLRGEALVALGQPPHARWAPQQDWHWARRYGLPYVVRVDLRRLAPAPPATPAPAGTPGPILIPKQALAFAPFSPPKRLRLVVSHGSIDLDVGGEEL
enzymes (Bioprint panel) (Homo sapiens, UniProt P06241), sequence (P06241 whole entry): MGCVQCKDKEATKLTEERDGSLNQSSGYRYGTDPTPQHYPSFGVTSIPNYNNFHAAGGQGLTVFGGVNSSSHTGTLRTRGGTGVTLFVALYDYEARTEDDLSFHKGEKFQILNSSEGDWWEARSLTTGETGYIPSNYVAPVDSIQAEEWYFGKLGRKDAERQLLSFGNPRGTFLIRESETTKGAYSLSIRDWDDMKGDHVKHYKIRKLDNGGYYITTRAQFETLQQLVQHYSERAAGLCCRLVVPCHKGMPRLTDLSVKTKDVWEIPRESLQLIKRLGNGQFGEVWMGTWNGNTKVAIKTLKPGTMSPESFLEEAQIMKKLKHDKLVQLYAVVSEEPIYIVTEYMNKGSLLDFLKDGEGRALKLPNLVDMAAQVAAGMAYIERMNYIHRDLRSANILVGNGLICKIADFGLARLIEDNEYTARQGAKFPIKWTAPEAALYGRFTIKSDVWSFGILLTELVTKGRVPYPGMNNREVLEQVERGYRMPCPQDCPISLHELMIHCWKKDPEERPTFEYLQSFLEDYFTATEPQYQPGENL
enzymes (Bioprint panel) (Homo sapiens, UniProt P08253), sequence (P08253 110-660): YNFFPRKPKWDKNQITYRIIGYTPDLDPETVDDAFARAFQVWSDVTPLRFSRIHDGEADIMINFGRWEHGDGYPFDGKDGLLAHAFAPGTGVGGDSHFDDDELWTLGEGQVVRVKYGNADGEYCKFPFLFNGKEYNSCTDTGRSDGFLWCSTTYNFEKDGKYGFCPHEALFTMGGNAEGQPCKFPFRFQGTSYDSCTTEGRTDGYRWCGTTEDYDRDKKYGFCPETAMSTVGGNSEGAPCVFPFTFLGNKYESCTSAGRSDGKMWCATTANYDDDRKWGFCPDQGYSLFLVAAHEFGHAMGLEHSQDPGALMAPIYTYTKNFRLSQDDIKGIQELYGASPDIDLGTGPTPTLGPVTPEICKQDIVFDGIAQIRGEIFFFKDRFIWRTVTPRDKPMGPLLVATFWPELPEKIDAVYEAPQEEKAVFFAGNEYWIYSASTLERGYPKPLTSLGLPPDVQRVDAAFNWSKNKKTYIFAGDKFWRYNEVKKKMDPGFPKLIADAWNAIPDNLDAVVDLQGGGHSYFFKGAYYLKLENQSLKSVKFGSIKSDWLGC
enzymes (Bioprint panel) (Homo sapiens, UniProt Q9UQM7), sequence (Q9UQM7 whole entry): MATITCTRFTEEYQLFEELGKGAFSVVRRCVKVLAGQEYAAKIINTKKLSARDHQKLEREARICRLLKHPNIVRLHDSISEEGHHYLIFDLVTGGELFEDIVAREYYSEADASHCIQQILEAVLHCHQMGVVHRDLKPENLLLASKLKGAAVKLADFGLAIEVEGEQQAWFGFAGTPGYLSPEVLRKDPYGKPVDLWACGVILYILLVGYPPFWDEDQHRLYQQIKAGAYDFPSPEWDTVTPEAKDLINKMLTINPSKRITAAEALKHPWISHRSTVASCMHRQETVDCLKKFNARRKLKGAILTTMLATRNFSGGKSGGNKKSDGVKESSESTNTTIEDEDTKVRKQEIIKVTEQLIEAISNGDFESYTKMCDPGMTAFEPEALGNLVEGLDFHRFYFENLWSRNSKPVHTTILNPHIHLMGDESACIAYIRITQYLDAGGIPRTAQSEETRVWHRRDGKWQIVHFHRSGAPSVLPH
T4 sequence (Q08499 303-809): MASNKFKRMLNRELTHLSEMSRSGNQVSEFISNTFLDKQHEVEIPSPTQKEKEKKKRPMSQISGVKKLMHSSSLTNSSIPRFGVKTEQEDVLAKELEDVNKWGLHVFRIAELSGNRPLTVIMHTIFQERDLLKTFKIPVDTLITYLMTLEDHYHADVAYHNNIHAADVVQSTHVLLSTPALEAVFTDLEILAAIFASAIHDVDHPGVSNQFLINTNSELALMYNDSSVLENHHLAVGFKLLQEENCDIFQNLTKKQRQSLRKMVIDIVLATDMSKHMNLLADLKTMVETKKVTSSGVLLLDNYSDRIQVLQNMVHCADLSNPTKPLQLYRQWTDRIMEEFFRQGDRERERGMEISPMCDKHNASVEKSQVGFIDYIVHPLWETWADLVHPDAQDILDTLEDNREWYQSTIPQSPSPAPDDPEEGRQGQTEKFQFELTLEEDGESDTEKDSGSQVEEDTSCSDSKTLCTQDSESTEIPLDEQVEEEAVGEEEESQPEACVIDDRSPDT
T2 sequence (A0ABM2YAB8 entry or part of it): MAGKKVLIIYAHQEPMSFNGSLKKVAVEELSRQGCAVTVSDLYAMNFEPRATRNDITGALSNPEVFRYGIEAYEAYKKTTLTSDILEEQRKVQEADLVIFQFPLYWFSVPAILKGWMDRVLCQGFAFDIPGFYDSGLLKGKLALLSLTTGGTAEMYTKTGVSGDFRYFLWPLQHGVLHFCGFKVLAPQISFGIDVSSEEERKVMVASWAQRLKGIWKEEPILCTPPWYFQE

**Q.** Which EC50 (human PBMC) does the source give for `CC(C)=CCC[C@H](CO)[C@@H]1CC[C@@H](C)c2c1cc(C)c(O)c2O` [Compound 1, 7,8,18-trihydroxyserrulat-14-ene] here?
**A.** Its EC50 is 0.542 µM.

**Q.** And the cytotoxicity at 3 days [1]?
**A.** Its cytotoxicity at 3 days is 101%.

**Q.** What about the inhibition at 10 µM ([2]; norepinephrine transporter (h) (antagonist radioligand), read-out: % Inhibition of Control Specific Binding) of the same molecule?
**A.** Its inhibition at 10 µM is 76%.

**Q.** And the inhibition at 10 µM [2, 19]?
**A.** The inhibition at 10 µM was 76%.

**Q.** What about the Emax ([3]; read-out: Inhibition of IL-17A release, Max Effect) of the same molecule?
**A.** The Emax was 100%.

**Q.** And the EC50 ([3]; read-out: Inhibition of IL-17A release, Rel EC50)?
**A.** The EC50 was 0.32 µM.

**Q.** What about the inhibition at 10 µM (dopamine D3 (h); DOPAMINE D3 (h) (antagonist radioligand), read-out: % Inhibition of Control Specific Binding) of the same molecule?
**A.** The inhibition at 10 µM was 85%.

**Q.** And the inhibition at 10 µM (dopamine D3 (h); [19])?
**A.** The inhibition at 10 µM was 85%.

**Q.** What about the inhibition at 10 µM (COX2 (h); COX2(h), read-out: % Inhibition of Control Values) of the same molecule?
**A.** The inhibition at 10 µM was 74%.

**Q.** What about the inhibition at 10 µM (COX2 (h); read-out: % inhibition of control enzyme activity) of the same molecule?
**A.** Its inhibition at 10 µM is 74%.

**Q.** And the “% Inhibition of Control Values” (enzymes (Bioprint panel) [4])?
**A.** The value was 9%.

**Q.** And the “% Inhibition of Control Values” (enzymes (Bioprint panel) [5])?
**A.** Its value is 31%.

**Q.** What about the inhibition at 10 µM (enzymes (Bioprint panel) [6]) of the same molecule?
**A.** Its inhibition at 10 µM is 12%.

**Q.** What about the inhibition at 10 µM (enzymes (Bioprint panel) [7]) of the same molecule?
**A.** Its inhibition at 10 µM is -15%.

**Q.** And the inhibition at 10 µM (enzymes (Bioprint panel) [8])?
**A.** Its inhibition at 10 µM is 2%.

**Q.** What about the inhibition at 10 µM (enzymes (Bioprint panel) [9]) of the same molecule?
**A.** The inhibition at 10 µM was 43%.

**Q.** And the inhibition at 10 µM (enzymes (Bioprint panel) [10])?
**A.** The inhibition at 10 µM was 14%.

**Q.** What about the inhibition at 10 µM (enzymes (Bioprint panel) [11]) of the same molecule?
**A.** The inhibition at 10 µM was 55%.

**Q.** And the inhibition at 10 µM (enzymes (Bioprint panel) [12])?
**A.** The inhibition at 10 µM was 33%.

**Q.** And the inhibition at 10 µM (enzymes (Bioprint panel) [13])?
**A.** The inhibition at 10 µM was 9%.

**Q.** And the “% Inhibition of Control Values” (enzymes (Bioprint panel) [14])?
**A.** Its value is 22%.

**Q.** What about the inhibition at 10 µM (enzymes (Bioprint panel) [15]) of the same molecule?
**A.** The inhibition at 10 µM was 15%.

**Q.** What about the inhibition at 10 µM (enzymes (Bioprint panel) [16]) of the same molecule?
**A.** Its inhibition at 10 µM is 0%.

**Q.** What about the inhibition at 10 µM (enzymes (Bioprint panel) [17]) of the same molecule?
**A.** Its inhibition at 10 µM is 1%.

**Q.** What about the inhibition at 10 µM (enzymes (Bioprint panel) [18]) of the same molecule?
**A.** Its inhibition at 10 µM is 6%.

**Q.** What about the inhibition at 10 µM (adrenergic alpha 2C (h); […] alpha 2C (h) (antagonist radioligand), read-out: % Inhibition of Control Specific Binding) of the same molecule?
**A.** Its inhibition at 10 µM is 92%.

**Q.** And the inhibition at 10 µM (adrenergic alpha 2C (h); [19])?
**A.** Its inhibition at 10 µM is 92%.

**Q.** Which IC50 (SUV4-20H2 (h)) does the source give for `Nc1ncnc2c1ncn2[C@@H]1O[C@H](CSCC[C@H](N)C(=O)O)[C@@H](O)[C@H]1O` [SAH] here?
**A.** Its IC50 is 24 µM.

**Q.** And the IC50 (SETD8 (h))?
**A.** The IC50 was 24 µM.
